“Also recorded” adds a separate entry of the source. Read-outs that look alike come from different tables or passages of the source.
Key:
D2 receptor [1] = target: T1, D2 receptor (Rattus norvegicus, UniProt P61169); assay: [3H]Spiperone binding assay for D2-like receptors, rat caudate-putamen membranes; design: from tissue; host or cells: rat caudate-putamen membranes; settings: for Ki: rat brain
Protocol: (§1) All other Ki values are based on a single-site model.
(§2) Determination of D3 dopamine receptor affinity and selectivity were performed in membranes prepared from the brains of adult, male Sprague-Dawley rats (Harlan Sprague-Dawley, Indianapolis, Ind.). All compounds were dissolved in 100% ethanol at a concentration of 5 mM.
[^3H]Spiperone binding assays. […] Assays were performed using membranes prepared from rat caudate-putamen, which predominantly express the D2 subtype of D2-like receptors, and the final membrane homogenate concentration was 1.5 mg o.w.w./ml. The assay buffer was 50 mM Tris-HCl, 5 mM KCl, 2 mM MgCl2, and 2 mM CaCl2, pH 7.4 at 23° C.; the concentration of [^3H]spiperone (24 Ci/mmol; Amersham) was 0.2 nM; and the incubation time was 90 minutes at 23° C. Nonspecific binding was defined in the presence of 1 μM (+)-butaclamol.

[2] = target: D1-like dopamine receptors; assay: [3H]SCH 23390 binding assay for D1-like dopamine receptors, rat brain membranes; settings: single-site model, read-out: Ki ± SEM D1-like [3H]SCH23390
Protocol: as §1, §2

D3 receptor = target: T2, D3 receptor (Rattus norvegicus, UniProt P19020); assay: [3H]PD 128907 binding assay for D3 receptors, rat ventral striatum membranes; settings: for less potent than compound 6 to the D3 receptor: Ki compared with compound 6; for Selectivity D1-like/D3 / Selectivity D2-like/D3: ratio of Ki values, Table 1
T2 construct: membranes prepared from the brains of adult, male Sprague-Dawley rats; from tissue; host or cells: rat ventral striatum (nucleus accumbens and olfactory tubercles) membranes
T2 sequence (P19020 whole entry): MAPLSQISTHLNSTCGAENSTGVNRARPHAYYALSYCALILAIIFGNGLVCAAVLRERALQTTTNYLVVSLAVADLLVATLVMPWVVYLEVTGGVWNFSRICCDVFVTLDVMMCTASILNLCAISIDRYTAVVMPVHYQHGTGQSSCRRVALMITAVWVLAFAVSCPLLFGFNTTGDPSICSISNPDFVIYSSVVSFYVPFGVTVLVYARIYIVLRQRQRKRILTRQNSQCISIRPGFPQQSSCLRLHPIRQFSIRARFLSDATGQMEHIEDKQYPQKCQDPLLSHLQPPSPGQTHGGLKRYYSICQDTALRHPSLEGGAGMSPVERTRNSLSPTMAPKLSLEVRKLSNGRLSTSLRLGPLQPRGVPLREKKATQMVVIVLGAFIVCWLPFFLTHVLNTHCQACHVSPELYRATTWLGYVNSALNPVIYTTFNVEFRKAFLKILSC
Protocol: as §1, §2
Rat ventral striatum (nucleus accumbens and olfactory tubercles) was prepared in assay buffer (50 mM Tris, 1 mM EDTA; pH 7.4 at 23° C.) to yield a final concentration of 10 mg original wet weight (o.w.w.)/ml. […] Nonspecific binding was defined by 1 μM spiperone. Assay tubes were incubated at 23° C. for 3 hours. The reaction was terminated by rapid vacuum filtration.

Aqueous solubility = assay type: physicochemical
D2 receptor [3] = target: T1, D2 receptor; assay: In vivo hypothermia assay in rats (D2 agonist activity); design: compounds 5, 6, and 12 in yawning and hypothermia assays in rats; from tissue; host or cells: living rats (Harlan), core body temperature read-out; settings: for in vivo functional activity at the D2 receptor: concluded from hypothermia in rats; for induction of hypothermia / changes in body temperature: rats, s.c.
Protocol: Recently, in vivo functional assays for the D3 and D2 receptors have been validated. (24,25). […] By employing these validated assays, compounds 5, 6, and 12 were evaluated for their in vivo functional activity at the D3 and D2 receptors.
(§3) Rats were purchased from Harlan (Indianapolis, Ind.) and housed three to a cage for yawning studies, and one to a cage for hypothermia studies. […] Yawning studies were performed as previously described (24,25), with yawning defined as a prolonged (about 1 second), wide opening of the mouth followed by a rapid closure. […] Yawning was recorded for 30 minutes after each injection. […] Yawns and changes in core body temperature are presented as the mean±standard error of the mean (SEM) with 8 (yawning) or 6 (hypothermia) rats per group.

D2 receptor [4] = target: T1, D2 receptor; assay: Alteration of pramipexole induced hypothermia in rats; assay type: in vivo; design: compounds 5, 6, and 12 in yawning and hypothermia assays in rats; from tissue; host or cells: living rats (Harlan), core body temperature read-out; settings: rats pretreated with 10.0 or 32.0 mg/kg
Protocol: as §3

[5] = background statement on known compounds; cited from earlier work
[6] = single-site model, read-out: Ki ± SEM D2 [3H]Spiperone
[7] = rat brain, single-site model, mean±SEM of three to five determinations, read-out: Ki ± SEM D3 [3H]PD128907
[8] = 2-site fit, high affinity component, read-out: Ki ± SEM D2 [3H]Spiperone, high affinity component (h)
[9] = 2-site fit, low affinity component, read-out: Ki ± SEM D2 [3H]Spiperone, low affinity component (1)

T1 sequence (P61169 whole entry): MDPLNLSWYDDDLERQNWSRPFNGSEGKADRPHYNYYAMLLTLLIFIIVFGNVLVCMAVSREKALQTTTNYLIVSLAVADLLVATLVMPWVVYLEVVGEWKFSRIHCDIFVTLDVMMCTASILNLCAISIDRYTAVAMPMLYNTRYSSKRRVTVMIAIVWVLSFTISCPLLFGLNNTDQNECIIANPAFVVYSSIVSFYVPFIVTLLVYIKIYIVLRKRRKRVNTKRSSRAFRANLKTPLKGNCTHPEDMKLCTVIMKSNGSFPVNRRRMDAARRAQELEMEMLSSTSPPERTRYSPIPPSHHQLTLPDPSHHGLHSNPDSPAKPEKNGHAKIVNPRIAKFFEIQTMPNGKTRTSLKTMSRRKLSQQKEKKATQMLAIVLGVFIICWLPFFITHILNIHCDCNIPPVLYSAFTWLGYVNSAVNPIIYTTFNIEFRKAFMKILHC

| SMILES | Ki (D2 receptor [1]; [6]) | Ki [2] | Ki (D3 receptor; [7]) | Selectivity D1-like/D3 (D3 receptor) | Selectivity D2-like/D3 (D3 receptor) | aqueous solubility (Aqueous solubility) | in vivo functional activity at the D2 receptor (D2 receptor [3]) | induction of hypothermia / changes in body temperature (D2 receptor [3]) | also measured |
| --- | --- | --- | --- | --- | --- | --- | --- | --- | --- |
| CCCN(CC[C@H]1CC[C@H](NC(=O)c2cc3ccccc3o2)CC1)[C@H]1CCc2nc(N)sc2C1 [Compound 11, Trans-N-(4-(2-(((S)-2-amino-4,5,6,7-tetrahydrobenzo[d]thiazol-6-yl)(propyl)amino)ethyl)cyclohexyl)benzofuran-2-carboxamide] | 68 ± 4.6 nM |  |  |  |  |  |  |  |  |
| Nc1nc2c(s1)C[C@@H](NCC[C@H]1CC[C@H](NC(=O)c3ccc4ccccc4c3)CC1)CC2 [Compound 10, Trans-N-(4-(2-((S)-2-amino-4,5,6,7-tetrahydrobenzo[d]thiazol-6-ylamino)ethyl)cyclohexyl)-2-naphthamide] | 670 ± 140 nM | 64000 nM | 7.6 nM | >8,000 | 88 |  |  |  | less potent than compound 6 to the D3 receptor (D3 receptor): 19 times |
| CCCN(CC[C@H]1CC[C@H](NC(=O)c2ccc3ccccc3c2)CC1)[C@H]1CCc2nc(N)sc2C1 [Compound 6, Trans-N-(4-(2-(((S)-2-amino-4,5,6,7-tetrahydrobenzo[d]thiazol-6-yl)(propyl)amino)ethyl)cyclohexyl)-2-naphthamide] |  |  |  |  |  | good aqueous solubility | no detectable agonist activity at the D2 receptor | failed to induce changes in body temperature | aqueous solubility (Aqueous solubility; dihydrochloride salt form): greater than 100 mg/ml |
| CCCN(CC[C@H]1CC[C@H](NC(=O)C=Cc2ccccc2)CC1)[C@H]1CCc2nc(N)sc2C1 [Compound 12, Trans-N-(4-(2-(((S)-2-amino-4,5,6,7-tetrahydrobenzo[d]thiazol-6-yl)(propyl)amino)ethyl)cyclohexyl)cinnamamide] | 330 ± 69 nM |  |  |  |  | good aqueous solubility | no detectable agonist activity at the D2 receptor; also recorded: no detectable agonist or antagonist activity at the D2 receptor | failed to induce changes in body temperature | effect on induction of hypothermia by pramipexole (D2 receptor [4]): failed to alter the induction of hypothermia by pramipexole |
| CCCN[C@H]1CCc2nc(N)sc2C1 [Compound 1, pramipexole, reference compound] |  | > 100000 nM |  |  |  |  | D2 agonist at higher doses | induction of hypothermia occurring at higher doses |  |
| CC(C)CCN(CC[C@H]1CC[C@H](NC(=O)c2ccc3ccccc3c2)CC1)[C@H]1CCc2nc(N)sc2C1 [Compound 8, Trans-N-(4-(2-(((S)-2-amino-4,5,6,7-tetrahydrobenzo[d]thiazol-6-yl)(isopentyl)amino)ethyl)cyclohexyl)-2-naphthamide] | 345 ± 33 nM | 13000 nM | 2.2 ± 0.1 nM | >5,000 | 157 |  |  |  | less potent than compound 6 to the D3 receptor (D3 receptor): 5 times |
| COc1ccc2c(c1)CCC1CN(CCC3CCC(NC(=O)c4ccc5ccccc5c4)CC3)CCN21 (centres unmarked) [Compound 4, reference compound] | > 10000 nM | > 50000 nM |  | >5000 | >1000 |  |  |  | aqueous solubility, known compounds [5]: poor aqueous solubility; Ki (D3 receptor): 5.7 ± 0.4 nM |
| CCCCN(CC[C@H]1CC[C@H](NC(=O)c2ccc3ccccc3c2)CC1)[C@H]1CCc2nc(N)sc2C1 [Compound 7, Trans-N-(4-(2-(((S)-2-amino-4,5,6,7-tetrahydrobenzo[d]thiazol-6-yl)(butyl)amino)ethyl)cyclohexyl)-2-naphthamide] |  | 5400 nM | 0.74 ± 0.083 nM | >7,000 | 74 |  |  |  | less selectivity for the D3 receptor over the D2 receptor than compound 6 (D3 receptor; D2 high affinity binding component): ~10 fold; Ki (D2 receptor [1]; [8]): 55 ± 12 nM; Ki (D2 receptor [1]; [9]): 1300 ± 180 nM |
| CCCN(CCCCNC(=O)c1ccc2ccccc2c1)[C@H]1CCc2nc(N)sc2C1 [Compound 5, (S)—N-(4-((2-amino-4,5,6,7-tetrahydrobenzo[d]thiazol-6-yl)(propyl)amino)butyl)-2-naphthamide] |  |  | 0.043 ± 0.006 nM |  |  | good aqueous solubility | full agonist at the D3 and D2 receptors in vivo | hypothermia was induced by compound 5 at higher doses | Ki (D2 receptor [1]; [8]): 2.7 ± 0.4 nM; Ki (D2 receptor [1]; [9]): 6700 ± 1500 nM |
| Nc1nc2c(s1)C[C@@H](N(CCC1CCCCC1)CC[C@H]1CC[C@H](NC(=O)c3ccc4ccccc4c3)CC1)CC2 [Compound 9, Trans-N-(-4-(2-(((S)-2-amino-4,5,6,7-tetrahydrobenzo[d]thiazol-6-yl)(2-cyclohexylethyl)amino)ethyl)cyclohexyl)-2-naphthamide] | 1200 nM |  | 23 ± 2.7 nM |  |  |  |  |  | less potent than compound 6 to the D2 receptor (D2 receptor [1]; Ki compared with compound 6): 3 times |

Reference: patent publication US8283368B2, “Selective ligands for the dopamine 3 (D3) receptor and methods of using the same” (The Regents of the University of Michigan, priority 2008, dated 2012)
